Tests used:
[1] = target: T1, BgaC β-galactosidase (BAD_1582) (Bifidobacterium adolescentis, UniProt A1A3T0); experiment: purified enzyme; glucose-release kinetics (Km […]) and competitive inhibition of ONPG hydrolysis; format: biochemical
[2] = target: T1, BgaC β-galactosidase (BAD_1582); experiment: purified enzyme hydrolysis, specific activity, absorbance at […] nm; TLC; format: biochemical
purified protein = substrate: O=[N+]([O-])c1ccccc1O[C@@H]1O[C@H](CO)[C@H](O)[C@H](O)[C@H]1O; experiment: purified protein; details: divalent metal ion (Mg2+ gives maximum activity) enzyme active site

`OC[C@H]1O[C@@H](O[C@H]2[C@H](O)[C@@H](O)C(O)O[C@@H]2CO)[C@H](O)[C@@H](O)[C@H]1O` (stereo partly drawn) [lactose] was tested, and the Ki [1] was 100 µM.

In the case of `O=[N+]([O-])c1ccc(O[C@@H]2O[C@H](CO)[C@H](O)[C@H](O)[C@H]2O)cc1` [pNPG], the “purified enzyme hydrolysis, specific activity, absorbance at 420 nm; TLC” value [2] is reported as 112 µmol/min/mg.

B1: BgaC β-galactosidase (BAD_1582) (Bifidobacterium adolescentis ATCC 15703) (protein)
chain: MADTAELAIVHATTASASWLTDPTVFAANRKPAHSSHRYVIGETREPKQSLDGEWKVRIEQARNVDVESAPFAAVDFEDGDFGAIEVPGHLQMAGYLKNKYVNIQYPWDGHEDPQAPNIPENNHVAIYRRRFALDAQLARTLENDGTVSLTFHGAATAIYVWLDGTFVGYGEDGFTPSEFDVTEALRNGNGNAADSPEAEHTLTVACYEYSSASWLEDQDFWRLHGLFRTVELAAQPHTHVETVQLEADYTAADTAGTADTAELNAALTLRNPADAMTIESTLRDGDGNVVWESTQACNGEIALNSGKMTNIAPWSAESPTLYTLTVRVVGHDGAIIETVTQKIGFRTFRIENGIMTINGKRIVFKGADRHEFDAKRGRAITREDMLSDVVFCKRHNINAIRTSHYPNQEYWYDLCDEYGLYLIDETNMETHGTWVANNVERPEDGIPGSRPEWEGACVDRINSMMRRDYNHPSVLIWSLGNESSAGEVFRAMYRHAHTIDPNRPVHYEGSVHMREFEDVTDIESRMYAHADEIERYLNDGSPAHTDGPKKPYISCEYMHAMGNSCGNMDEYTALERYPMYQGGFIWDFIDQAIETKLPDGTTRMCYGGDFGDRPSDYEFSGDGLLFADRTPSPKAQEVKQLYANVKIAVSVDEARITNDNLFVSTGDYRFVLRILADGKPVWSTTRRFDVAAGESASFEVDWPVDDYRSNAEELVLEVSQQLGNACDWAPAGYELAFGQCVVAGAKTTADAVDAAGAPADGTVTLGRWNAGVRGQGREALFSRTQGGMVSYTFGEREFVLRRPSITTFRPLTDNDRGAGHAFERAAWAVAGKYARCVDCAIANRGENAVEATYTYELAIPQRTKVTVRYVADTAGLVSLDVEYPGEKNGDLPTIPAFGIEWALPVEYANLRFYGAGPEETYADRRHAKLGVWSTTAGDDCAPYLLPQETGNHEDVRWAEITDDSGHGVRVKRGAGAKPFAMSLLPYSSTMLEEALHQDELPKPRHMFLRLLAAQMGVGGDDSWMSPVHEQYQLPADQPLSLNVQLKLF
In the case of B1, the Km (purified protein) is reported as 2500 µM.
